“Also recorded” adds a separate entry of the source.
What was measured:
soybean root cells = format: cell-based; conditions: for stimulation of Avr1b(N)-GFP uptake into soybean roots: after 9 hr
Avr1b(N)-GFP = format: binding, Phytophthora sojae
AvrL567(N)-GFP = format: binding, Melampsora lini
soybean leaf cells = format: cell-based

phosphatidyl choline [PC]
stimulation of Avr1b(N)-GFP uptake into soybean roots (soybean root cells): did not stimulate uptake

O=P(O)(O)OC1[C@@H](O)[C@H](O)C(OP(=O)(O)O)[C@H](O)[C@@H]1O (stereo partly drawn) [IP2, Inositol-1,4-diphosphate]
inhibition of binding of Avr1b(N)-GFP to PI-4-P-containing liposomes (Avr1b(N)-GFP): inhibited binding
inhibition of binding of AvrL567(N)-GFP to PI-4-P-containing liposomes (AvrL567(N)-GFP): completely block binding
inhibition of entry of Avr2-GFP into soybean root cells (soybean root cells): inhibited
inhibition of entry of AvrLm6-GFP into soybean root cells (soybean root cells): inhibited
inhibition of uptake/entry of Arg9-GFP into soybean root cells (soybean root cells): completely unaffected
inhibition of uptake/entry of Avr1b(N)-GFP into soybean root cells (soybean root cells): almost completely blocked
inhibition of uptake/entry of AvrL567(N)-GFP into soybean root cells (soybean root cells): almost completely blocked

Arg9
Avr1b function / cell re-entry in particle bombardment assay (reduction of GUS-positive blue spots with Rps1b) (soybean leaf cells): could functionally replace the RXLR2 motif

AAAA
ablation (soybean leaf cells): 0

phosphatidyl ethanolamine [PE]
stimulation of Avr1b(N)-GFP uptake into soybean roots (soybean root cells): did not stimulate uptake

phosphatidyl inositol [PI]
stimulation of Avr1b(N)-GFP uptake into soybean roots (soybean root cells): did not stimulate uptake

CCCCCCCC(=O)OC[C@H](COP(=O)(O)OC1[C@H](O)[C@H](O)C(OP(=O)(O)O)[C@H](O)[C@H]1O)OC(=O)CCCCCCC (stereo partly drawn) [di-octanoyl-PI-4-P]
promotion of uptake of Avr1b(N)-GFP and AvrL567(N)-GFP proteins containing alanine substitutions in the RXLR and dEER motifs (soybean root cells): did not promote the uptake
stimulation of Arg9-GFP uptake in soybean root cells (soybean root cells): does not stimulate uptake
stimulation of AvrL567(N)-GFP uptake into soybean roots (soybean root cells): strongly stimulated
stimulation of Avr1b(N)-GFP uptake into soybean roots (soybean root cells): strong stimulation; also recorded: stimulated

O=P(O)(O)O[C@@H]1C(O)[C@H](OP(=O)(O)O)[C@@H](O)C(O)[C@H]1O (stereo partly drawn) [1,3-IP2, Inositol 1,3 diphosphate]
inhibition of entry of Avr2-GFP into soybean root cells (soybean root cells): inhibited
inhibition of entry of AvrLm6-GFP into soybean root cells (soybean root cells): inhibited

Reference: patent publication US20140331365A1 (priority 2008, published 2014)
